# In the NIST ThermoML archive (doi:10.1016/j.jct.2015.06.036):
# ± gives the expanded uncertainty stated by the source.
# Experiment: refractive index (Na D-line) (dimensionless); xn = mol fraction of the nth substance listed
# Settings: 101 kPa, Liquid, Standard Abbe refractometry
smiles,measurement,setting,value
CCn1cc[n+](C)c1.F[B-](F)(F)F [1-ethyl-3-methylimidazolium tetrafluoroborate] + CO,refractive index,"288.15 K, x1 = 0.0136",1.3368 ± 0.0005
same,refractive index,"288.15 K, x1 = 0.0283",1.3419 ± 0.0005
same,refractive index,"288.15 K, x1 = 0.044",1.3466 ± 0.0005
same,refractive index,"288.15 K, x1 = 0.0615",1.3515 ± 0.0005
same,refractive index,"288.15 K, x1 = 0.101",1.3604 ± 0.0005
same,refractive index,"288.15 K, x1 = 0.1485",1.3697 ± 0.0005
same,refractive index,"288.15 K, x1 = 0.2073",1.3785 ± 0.0005
same,refractive index,"288.15 K, x1 = 0.2817",1.3865 ± 0.0005
same,refractive index,"288.15 K, x1 = 0.379",1.3937 ± 0.0005
same,refractive index,"288.15 K, x1 = 0.5111",1.4008 ± 0.0005
same,refractive index,"288.15 K, x1 = 0.5959",1.404 ± 0.0006
same,refractive index,"288.15 K, x1 = 0.7027",1.4075 ± 0.0006
same,refractive index,"288.15 K, x1 = 0.8297",1.4109 ± 0.0006
same,refractive index,"288.15 K, x1 = 1",1.4143 ± 0.0006
same,refractive index,"298.15 K, x1 = 0.0136",1.3324 ± 0.0005
same,refractive index,"298.15 K, x1 = 0.0283",1.3376 ± 0.0005
same,refractive index,"298.15 K, x1 = 0.044",1.3423 ± 0.0005
same,refractive index,"298.15 K, x1 = 0.0615",1.3474 ± 0.0005
same,refractive index,"298.15 K, x1 = 0.101",1.3566 ± 0.0005
same,refractive index,"298.15 K, x1 = 0.1485",1.3659 ± 0.0005
same,refractive index,"298.15 K, x1 = 0.2073",1.3749 ± 0.0005
same,refractive index,"298.15 K, x1 = 0.2817",1.383 ± 0.0005
same,refractive index,"298.15 K, x1 = 0.379",1.3905 ± 0.0005
same,refractive index,"298.15 K, x1 = 0.5111",1.3978 ± 0.0005
same,refractive index,"298.15 K, x1 = 0.5959",1.4012 ± 0.0006
same,refractive index,"298.15 K, x1 = 0.7027",1.4048 ± 0.0006
same,refractive index,"298.15 K, x1 = 0.8297",1.4082 ± 0.0006
same,refractive index,"298.15 K, x1 = 1",1.4118 ± 0.0006
same,refractive index,"308.15 K, x1 = 0.0136",1.3286 ± 0.0005
same,refractive index,"308.15 K, x1 = 0.0283",1.3337 ± 0.0005
same,refractive index,"308.15 K, x1 = 0.044",1.3389 ± 0.0005
same,refractive index,"308.15 K, x1 = 0.0615",1.3439 ± 0.0005
same,refractive index,"308.15 K, x1 = 0.101",1.353 ± 0.0005
same,refractive index,"308.15 K, x1 = 0.1485",1.3627 ± 0.0005
same,refractive index,"308.15 K, x1 = 0.2073",1.3715 ± 0.0005
same,refractive index,"308.15 K, x1 = 0.2817",1.38 ± 0.0005
same,refractive index,"308.15 K, x1 = 0.379",1.3874 ± 0.0005
same,refractive index,"308.15 K, x1 = 0.5111",1.3949 ± 0.0005
same,refractive index,"308.15 K, x1 = 0.5959",1.3985 ± 0.0006
same,refractive index,"308.15 K, x1 = 0.7027",1.4022 ± 0.0006
same,refractive index,"308.15 K, x1 = 0.8297",1.4056 ± 0.0006
same,refractive index,"308.15 K, x1 = 1",1.4092 ± 0.0006
same,refractive index,"318.15 K, x1 = 0.0136",1.3247 ± 0.0005
same,refractive index,"318.15 K, x1 = 0.0283",1.33 ± 0.0005
same,refractive index,"318.15 K, x1 = 0.044",1.3357 ± 0.0005
same,refractive index,"318.15 K, x1 = 0.0615",1.3402 ± 0.0005
same,refractive index,"318.15 K, x1 = 0.101",1.3495 ± 0.0005
same,refractive index,"318.15 K, x1 = 0.1485",1.3592 ± 0.0005
same,refractive index,"318.15 K, x1 = 0.2073",1.3685 ± 0.0005
same,refractive index,"318.15 K, x1 = 0.2817",1.3768 ± 0.0005
same,refractive index,"318.15 K, x1 = 0.379",1.3845 ± 0.0005
same,refractive index,"318.15 K, x1 = 0.5111",1.3922 ± 0.0005
same,refractive index,"318.15 K, x1 = 0.5959",1.3958 ± 0.0006
same,refractive index,"318.15 K, x1 = 0.7027",1.3996 ± 0.0006
same,refractive index,"318.15 K, x1 = 0.8297",1.4031 ± 0.0006
same,refractive index,"318.15 K, x1 = 1",1.4067 ± 0.0006
CCCCn1cc[n+](C)c1.F[B-](F)(F)F [1-butyl-3-methylimidazolium tetrafluoroborate] + CO,refractive index,"288.15 K, x1 = 0.0113",1.337 ± 0.0005
same,refractive index,"288.15 K, x1 = 0.0235",1.3428 ± 0.0005
same,refractive index,"288.15 K, x1 = 0.0366",1.3481 ± 0.0005
same,refractive index,"288.15 K, x1 = 0.0509",1.3539 ± 0.0005
same,refractive index,"288.15 K, x1 = 0.0845",1.364 ± 0.0005
same,refractive index,"288.15 K, x1 = 0.1254",1.3729 ± 0.0005
same,refractive index,"288.15 K, x1 = 0.1771",1.3827 ± 0.0005
same,refractive index,"288.15 K, x1 = 0.2441",1.3912 ± 0.0005
same,refractive index,"288.15 K, x1 = 0.3338",1.3999 ± 0.0005
same,refractive index,"288.15 K, x1 = 0.4626",1.4082 ± 0.0005
same,refractive index,"288.15 K, x1 = 0.5482",1.4123 ± 0.0005
same,refractive index,"288.15 K, x1 = 0.6589",1.4163 ± 0.0005
same,refractive index,"288.15 K, x1 = 0.8037",1.4204 ± 0.0005
same,refractive index,"288.15 K, x1 = 1",1.4243 ± 0.0005
same,refractive index,"298.15 K, x1 = 0.0113",1.3325 ± 0.0005
same,refractive index,"298.15 K, x1 = 0.0235",1.3381 ± 0.0005
same,refractive index,"298.15 K, x1 = 0.0366",1.3435 ± 0.0005
same,refractive index,"298.15 K, x1 = 0.0509",1.3488 ± 0.0005
same,refractive index,"298.15 K, x1 = 0.0845",1.3595 ± 0.0005
same,refractive index,"298.15 K, x1 = 0.1254",1.369 ± 0.0005
same,refractive index,"298.15 K, x1 = 0.1771",1.3788 ± 0.0005
same,refractive index,"298.15 K, x1 = 0.2441",1.3877 ± 0.0005
same,refractive index,"298.15 K, x1 = 0.3338",1.3966 ± 0.0005
same,refractive index,"298.15 K, x1 = 0.4626",1.4052 ± 0.0005
same,refractive index,"298.15 K, x1 = 0.5482",1.4093 ± 0.0005
same,refractive index,"298.15 K, x1 = 0.6589",1.4135 ± 0.0005
same,refractive index,"298.15 K, x1 = 0.8037",1.4177 ± 0.0005
same,refractive index,"298.15 K, x1 = 1",1.4217 ± 0.0005
same,refractive index,"308.15 K, x1 = 0.0113",1.3285 ± 0.0005
same,refractive index,"308.15 K, x1 = 0.0235",1.3343 ± 0.0005
same,refractive index,"308.15 K, x1 = 0.0366",1.3398 ± 0.0005
same,refractive index,"308.15 K, x1 = 0.0509",1.3453 ± 0.0005
same,refractive index,"308.15 K, x1 = 0.0845",1.3562 ± 0.0005
same,refractive index,"308.15 K, x1 = 0.1254",1.3657 ± 0.0005
same,refractive index,"308.15 K, x1 = 0.1771",1.3754 ± 0.0005
same,refractive index,"308.15 K, x1 = 0.2441",1.3845 ± 0.0005
same,refractive index,"308.15 K, x1 = 0.3338",1.3934 ± 0.0005
same,refractive index,"308.15 K, x1 = 0.4626",1.4022 ± 0.0005
same,refractive index,"308.15 K, x1 = 0.5482",1.4064 ± 0.0005
same,refractive index,"308.15 K, x1 = 0.6589",1.4107 ± 0.0005
same,refractive index,"308.15 K, x1 = 0.8037",1.415 ± 0.0005
same,refractive index,"308.15 K, x1 = 1",1.419 ± 0.0005
same,refractive index,"318.15 K, x1 = 0.0113",1.3246 ± 0.0005
same,refractive index,"318.15 K, x1 = 0.0235",1.3305 ± 0.0005
same,refractive index,"318.15 K, x1 = 0.0366",1.3365 ± 0.0005
same,refractive index,"318.15 K, x1 = 0.0509",1.3419 ± 0.0005
same,refractive index,"318.15 K, x1 = 0.0845",1.3536 ± 0.0005
same,refractive index,"318.15 K, x1 = 0.1254",1.3629 ± 0.0005
same,refractive index,"318.15 K, x1 = 0.1771",1.3726 ± 0.0005
same,refractive index,"318.15 K, x1 = 0.2441",1.3813 ± 0.0005
same,refractive index,"318.15 K, x1 = 0.3338",1.3904 ± 0.0005
same,refractive index,"318.15 K, x1 = 0.4626",1.3993 ± 0.0005
same,refractive index,"318.15 K, x1 = 0.5482",1.4036 ± 0.0005
same,refractive index,"318.15 K, x1 = 0.6589",1.408 ± 0.0005
same,refractive index,"318.15 K, x1 = 0.8037",1.4124 ± 0.0005
same,refractive index,"318.15 K, x1 = 1",1.4164 ± 0.0005
